Test results from patent US7785879B1, “Pregnane X receptor compositions, crystals and uses thereof” (Schering Corporation, priority 2005, dated 2010).

Experiments:
PXR (PXR-LBD-L10-SRC) = target: T1, PXR (PXR-LBD-L10-SRC) (Homo sapiens, UniProt O75469); assay: Temperature-dependent circular dichroism, stabilization of PXR-LBD-L10-SRC; conditions: human, pH 7.9
T1 sequence (O75469 with tags, fused parts or gaps): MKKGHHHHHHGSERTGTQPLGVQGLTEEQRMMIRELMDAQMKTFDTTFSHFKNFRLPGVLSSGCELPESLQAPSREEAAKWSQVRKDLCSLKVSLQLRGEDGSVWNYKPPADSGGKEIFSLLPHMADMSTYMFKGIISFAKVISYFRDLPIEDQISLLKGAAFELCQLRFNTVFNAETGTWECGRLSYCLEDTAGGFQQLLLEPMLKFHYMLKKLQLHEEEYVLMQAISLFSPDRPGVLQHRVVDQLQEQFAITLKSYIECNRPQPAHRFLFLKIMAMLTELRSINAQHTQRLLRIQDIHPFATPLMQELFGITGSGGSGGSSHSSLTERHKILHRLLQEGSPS
Procedure: (§1) The CD is a function of wavelength.
(§2) PXR-LBD-L10-SRC was expressed and purified essentially as set forth above. […] Stabilization of PXR-LBD-L10-SRC in the presence of various substances was measured by temperature-dependent circular dichroism. PXR-LBD-L10-SRC was assayed under the following conditions:
(§3) Buffer: 25 mM Hepes, pH 7.9, 150 mM NaCl, 5% glycerol, 10 mM BME,
(§4) heating ramp at 2° C./min
(§5) temperature range: 30-80° C.

PXR-LBD-L10-SRC = target: T2, PXR-LBD-L10-SRC (Homo sapiens, UniProt O75469); assay: as above; conditions: 25 uM compound
T2 sequence (O75469 with tags, fused parts or gaps): T1 sequence (O75469 with tags, fused parts or gaps)
Procedure: as §1, §2, §3, §4, §5

PXR = target: T3, PXR (Homo sapiens, UniProt O75469); conditions: Table 2; read-out: reported Kd; cited from earlier work
T3 sequence (O75469 1-434): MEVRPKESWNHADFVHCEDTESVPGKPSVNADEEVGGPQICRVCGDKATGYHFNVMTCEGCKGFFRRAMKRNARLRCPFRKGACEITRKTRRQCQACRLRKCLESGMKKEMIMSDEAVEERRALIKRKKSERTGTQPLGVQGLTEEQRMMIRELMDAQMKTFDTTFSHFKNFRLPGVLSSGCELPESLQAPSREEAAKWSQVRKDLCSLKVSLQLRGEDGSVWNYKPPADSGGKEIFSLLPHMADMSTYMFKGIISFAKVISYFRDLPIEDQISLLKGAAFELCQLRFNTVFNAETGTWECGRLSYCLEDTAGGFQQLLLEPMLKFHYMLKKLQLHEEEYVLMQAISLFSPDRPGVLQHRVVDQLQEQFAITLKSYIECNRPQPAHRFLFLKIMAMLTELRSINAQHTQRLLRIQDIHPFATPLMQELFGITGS

[1] = target: T4, human PXR-LBD-L10-SRC (SEQ ID NO: 24) (Homo sapiens, UniProt O75469); assay: Ligand binding assay (radioligand, filter plate); conditions: conclusion from the radioligand binding tables
T4 sequence (O75469 with tags, fused parts or gaps): T1 sequence (O75469 with tags, fused parts or gaps)
Procedure: Chemilluminescence can be detected, for example, in a scintillation counter (Packard Top-counter). Specifically, the bound complex can be contacted with scintillant and then analyzed for the occurrence of scintillation.
After one hour of incubation at room temperature, the mixture was transferred to an imobilon multiScreen filter plate (Millipore). The plate was washed five times with PBS and dried under vacuum. The dried plate was added Opti-Fluor Scitillation cocktail before counting in a Parkard Top-counter.

SMILES | ΔTm at 25 µM (PXR (PXR-LBD-L10-SRC)) | Tm (PXR-LBD-L10-SRC; 2.5 μM protein, 225 nm, apo enzyme Tm 52.9 ± 0.05) | ΔTm (PXR-LBD-L10-SRC; vs PXR-LBD-L10-SRC apo enzyme) | Kd (PXR-LBD-L10-SRC; from CD thermal denaturation) | Kd (PXR) | binding activity of PXR [1]
O=C1C(CC[S+]([O-])c2ccccc2)C(=O)N(c2ccccc2)N1c1ccccc1 (stereo not drawn) [sulfopyrole] | 2.3 °C |  |  |  |  | 
Clc1ccccc1C(c1ccccc1)(c1ccccc1)n1ccnc1 [Clotrimazole] |  | 58.5 C | 5.6 C | 200 nM | 300 nM | significant
